This is an account of results in PubChem BioAssay (NCI).

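Growth conditions: 96-well plates. Treatment: test compound, 48 hours, 5 concentrations. Analysis: linear interpolation between bracketing concentrations; unreached endpoints set to highest concentration. GI50 marks 50% less growth. TGI denotes the concentration required for complete inhibition of growth.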 A value given as a limit tells only on which side of the number the result lay.

Common to all, as to test: DTP human tumour cell line panel, 48 h
Assay [1] relates to SNB-19 CNS.
For assay [2], the system named is CCRF-CEM leukemia.
The test system of assay [3] is SF-539 CNS.
Assay [4] deals with RPMI-8226 leukemia.
For assay [5], the system named is HCT-116 colon.
Assay [6] has as its system SNB-75 CNS.
For assay [7], the system named is 786-0 renal.
Assay [8] has as its system HCT-15 colon.
For assay [9], the system named is DU-145 prostate.
The test system of assay [10] is PC-3 prostate.

As to `Cc1nc2c(o1)C(=Nc1ccccc1)c1nc(C)oc1C2=Nc1ccccc1`, the total growth inhibition concentration (TGI) (in general, the concentration giving total growth inhibition) is 42.5 µM in assay [1]; over 100 µM in assay [2]; 27.3 µM in assay [3]; over 100 µM in assay [4]; 37.6 µM in assay [5]; 28.6 µM in assay [6]. In addition, the values for the TGI in [7] and in assay [8] were 34.2 µM and over 100 µM, respectively.

With `Clc1cccc(-c2nnc(-c3nn(-c4ccccc4)c4nc5ccccc5nc34)o2)c1`, the TGI in assay [1], in assay [2], in [3], in assay [4], in assay [5] and in assay [6] was over 100 µM each time. For the same compound, the TGI in assay [7] and in [8] was over 100 µM each time.

On to `CCNC(=O)Oc1ccc(/C(=C(/C)Cc2ccc(OC)cc2)c2ccc(OCCN(CC)CC)cc2)cc1`, for which the GI50 (as a rule, the concentration giving 50% growth inhibition) in assay [1] is 2.57 µM; in assay [2], 2.66 µM; in [9], 2.36 µM; in [3] it was 1.61 µM; in assay [4], 1.99 µM; in assay [5] it was 1.57 µM. The GI50 is 1.69 µM in assay [6], 1.39 µM in [7] and 1.51 µM in assay [8]. Besides, the TGI in assay [1] was 6.16 µM; in [2] it was 7.96 µM; in assay [9] it was 5.83 µM; in assay [3] it was 3.25 µM; in assay [4] it was 4.5 µM; in assay [5], 3.11 µM. Further, the TGI in assay [6] turned out to be 4.93 µM; in assay [7], 2.88 µM; in [8] it was 3.06 µM.

Turning to `O=C(Nc1ccc(Cl)cc1Cl)OC(Cn1cncn1)c1ccc(Cl)cc1Cl` (stereo not drawn), the TGI in assay [1] was 30.8 µM; in assay [2], over 100 µM; in [3] it was 32.5 µM; in assay [4] it was over 100 µM; in assay [5], 27.1 µM; in assay [6], 30.1 µM. The figures for the TGI in assay [7] and in assay [8] were 33.5 µM and 31.1 µM, respectively.

For the compound `COc1ccc(S(=O)(=O)N(CC(=O)O)c2ccccc2)cc1`, the concentration for total growth inhibition (TGI) in assay [1], in assay [2], in [3], in assay [4], in [6] and in [7] was over 100 µM throughout. Also, the TGI in assay [8] was over 100 µM.

Regarding `N#CC(C(=O)/C(=N\NC(N)=O)C(C#N)c1ccccc1)c1ccccc1` (stereo not drawn), the TGI in assay [1], in [2], in [3], in [4], in assay [5] and in [6] was over 100 µM throughout. The TGI in assay [7] and in assay [8] was over 100 µM throughout.

With `COc1c(-c2ccccc2)nc2ccc(Oc3ccccc3)nn12`, the TGI is over 100 µM in assay [1]; 99.3 µM in [2]; over 100 µM in [3]; over 70.9 µM in assay [4]; over 100 µM in [5]; over 100 µM in [6]. The TGI in [7] and in [8] was over 100 µM each time.

For the compound `Cc1cc2c(-c3nc4ccccn4c3N)c(O)c(O)cc2c(O)c1-c1c(C)cc2c(-c3nc4ccccn4c3N)c(O)c(O)cc2c1O`, the GI50 in assay [1] is 0.661 µM; in [2] it was 0.497 µM; in [3] it was 0.707 µM; in [4], 0.661 µM; in assay [5], 0.163 µM; in assay [10], 0.692 µM. Besides, the GI50 was 1.02 µM in assay [6], 2.82 µM in assay [7] and 0.58 µM in assay [8]. The concentration for total growth inhibition (TGI) in [1] is over 25 µM; in assay [2] it was over 25 µM; in assay [3], 20.9 µM; in assay [4], over 25 µM; in assay [5] it was over 25 µM; in assay [10] it was over 25 µM. Besides, the TGI in assay [6], in [7] and in assay [8] was over 25 µM each time.

For the compound `CN(/N=C/c1ccnc2ccccc12)c1c([N+](=O)[O-])cc([N+](=O)[O-])cc1[N+](=O)[O-]`, the TGI in assay [1], in assay [2], in assay [3], in assay [4], in [6] and in assay [7] was over 100 µM in each case. Also, in assay [8], the TGI is over 100 µM.

With `Cc1cn(Cc2ccc(C34CC5CC(CC(C5)C3)C4)c(O)c2)c(=O)[nH]c1=O`, the GI50 in assay [1] is 13.9 µM; in assay [9], 13.7 µM; in assay [3] it was 9.45 µM; in assay [4], 1.79 µM; in [5], 10.7 µM; in assay [6], 11.2 µM. Further, the GI50 in assay [7] was 12.6 µM; in assay [8], 7.99 µM. The TGI in assay [1] came out at 31.1 µM; in assay [9], 26.6 µM; in [3] it was 23 µM; in assay [4], 21 µM; in assay [5], 22.5 µM; in [6], 29.6 µM. In addition, the TGI in [7] was determined as 27 µM; in assay [8], 20.5 µM.

In the case of `CCOc1ccccc1N=Nc1c(-c2ccccc2)nn(C(=O)CC(=O)Nc2cccc(C)c2)c1-c1ccccc1`, the TGI in assay [1], in [2], in assay [3], in assay [4], in assay [5] and in [6] was over 100 µM each time. In assay [7], this compound registered a TGI of over 100 µM.

For the compound `CCCCCCCCCC[C@H](O)[C@H](O)CC[C@@H](O)[C@H]1CC[C@@H]([C@H]2CC[C@H](CCCCCCC[C@@H](O)CC3=C[C@H](C)OC3=O)O2)O1`, the GI50 in assay [1] was 29.5 µM; in assay [3], 15.5 µM; in assay [4] it was 16.6 µM; in assay [5] it was 0.966 µM; in assay [10], 11.7 µM; in assay [6], 25.8 µM. In addition, the GI50 is 30.9 µM in [7] and 23.8 µM in [8]. Further, the TGI is 40.9 µM in [3]; 50.4 µM in assay [4]; 61.6 µM in [5]; 40.7 µM in [10]; 98.2 µM in [6]; over 100 µM in assay [7]. This compound also showed a concentration for total growth inhibition (TGI) in assay [8] of over 100 µM.
